What was measured:
[1] = Caco-2 cell monolayer model assay (permeability); assay type: in vitro ADME; details: human
Procedure: (§1) Caco-2 cell model was used to assess the permeability of the compounds disclosed herein. Caco-2 cell was obtained from the CO-BIOR and the CO-BIOR Number is CBP60025. The cell generation used in the experiment was P9.
(§2) 1) […] of cell culture medium was added to each well of the Transwell reservoir, respectively. And then the PET transwell plates were incubated at 37° C., 5% CO2 for 1 hour before cell seeding.
(§3) 2) Caco-2 cells were diluted to 3.43×10^5 cells/mL with culture medium and 100 μL of cell suspension were dispensed into the filter well of the 96-well PET Transwell plate. Cells were cultivated for 14-18 days in a cell culture incubator at 37° C., 5% CO2, 95% relative humidity. Cell culture medium was replaced every other day, beginning no later than 24 hours after initial plating.
(§4) 3) Measure the electrical resistance across the monolayer by using Millicell Epithelial Volt-Ohm measuring system. Record the electrical resistance for each well. Once all wells have been measured, return the plate(s) to the incubator.
(§5) 4) TEER of each well is calculated by the equation below. The TEER value of each well should be greater than 230 ohms·cm^2.
(§6) 1) Remove the Caco-2 plate(s) from the incubator. Wash the monolayer twice with pre-warmed HBSS (10 mM HEPES, pH 7.4). Then incubate the plate(s) at 37° C. for 30 minutes.
(§7) 2) Prepare stock solutions of control compounds in DMSO at 5 mM and dilute with HBSS (10 mM HEPES, pH 7.4) to get 5 μM working solutions. Prepare stock solutions of test compounds in DMSO at 1 mM and dilute with HBSS (10 mM HEPES, pH 7.4) to get 1 μM working solutions. Digoxin is used as the reference substrate of Pgp. Atenolol is used as the low permeability marker, minoxidil is used as the high permeability marker.
(§8) 3) To determine the rate of drug transport in the apical to basolateral direction, add 100 μL of the working donor solutions (without inhibitor) to the Transwell insert (apical compartment). Fill the wells in the receiver plate (basolateral compartment) with 300 μL of transport buffer. To determine the rate of drug transport in the basolateral to apical direction, add 300 μL of the working donor solutions (without inhibitor) to the receiver plate wells (basolateral compartment). Fill the Transwell insert (apical compartment) with 100 μL of transport buffer.
(§9) 4) Transfer 50 μL samples from the working solutions to 300 μL of cold MeOH:acetonitrile=1:1 with IS (50 ng/ml Labetalol, 50 ng/ml Tolbutamide) to prepare the time 0 samples. Incubate the Transwell plate at 37° C., 5% CO2 with shaking at 60 rpm on a rotary shaker for 2 hours.
(§10) 5) At the end of the transport period, transfer 50 μL of samples from apical and basolateral wells to a new 96-well plate. Add 300 μL of quenching solution (MeOH:acetonitrile=1:1 with IS (50 ng/ml Labetalol, 50 ng/mL Tolbutamide)) into each well of the plate(s). Vortex for 10 minutes. Samples are centrifuged at 4000 rpm g for 30 minutes. An aliquot of 100 μL of the supernatant is mixed with an appropriate volume of ultra-pure water (depends on the LC-MS/MS signal response and peak shape) before LC-MS/MS analysis.
(§11) 6) To determine the Lucifer Yellow leakage after 2-hour transport period, prepare stock solutions of Lucifer yellow in DMSO and dilute with HBSS (10 mM HEPES, pH 7.4) to reach the final concentration of 100 μM. Add 100 μL of the Lucifer yellow solution to the apical compartment. Fill the basolateral compartment with 300 μL of HBSS (10 mM HEPES, pH 7.4). Incubate the plate(s) at 37° C. for 30 minutes and remove 80 μL directly from the apical and basolateral wells and transfer to new 96 wells plates. Measure Lucifer Yellow fluorescence (to monitor monolayer integrity) in a fluorescence plate reader at 485 nm excitation and 530 nm emission.
(§12) 7) Discard the remaining solution in the cell plate, Add 300 μL of quenching solution (MeOH:acetonitrile=1:1 with IS (50 ng/ml Labetalol, 50 ng/mL Tolbutamide)) into each well of the plate(s), blow up and down and mix well for 5 times. […]

in vitro = details: dog, microsomes
[2] = Hepatic metabolic stability (HMS) assay, dog hepatocytes; details: dog, cryopreserved hepatocytes
Procedure: 1) 10 mM test compounds were provided.
(§20) 2) 30 mM positive control stock solutions: Dissolved accurate amount of positive control compounds in dimethyl sulfoxide (DMSO).
(§21) 3) 1000× Stock Solution: Diluted 10 mM test compounds and 30 mM positive control compounds to 1 mM and 3 mM with DMSO in 96-well plates.
(§22) 4) 100× Dosing Solution: Diluted 1 mM test compounds and 3 mM positive control compounds to 100 μM and 300 μM dosing solutions with ACN.
(§23) 5) Preparation of 0.5×10^6/mL cells suspension: cryopreserved cells were thawed, isolated and suspended in Incubation Medium, then diluted with pre-warmed Incubation Medium to 0.5×10^6 cells/mL.
(§24) 6) Add 198 μL of pre-warmed cell suspensions in 96-well plates.
(§25) 7) Preparation of Quenching Plate: Transfer 125 μL of stop solution in a set of pre-labeled 96-well plates.
(§26) 8) Spike 2 μL dosing solution to each well of 96-well plates in duplicate.
(§27) 9) For TO Samples, mix to achieve a homogenous suspension for about 1 min, then immediately transfer 25 μL of each sample into well containing 125 μL of ice-cold stop solution followed by mixing.
(§28) 10) Incubate all plates at 37° C. in a 95% humidified incubator at 5% CO2 to start the reactions with constant shaking.
(§29) 11) At 15, 30, 60 and 90 min, mix samples and then transfer 25 μL of each sample at each time point to well containing 125 μL of ice-cold stop solution followed by mixing.
(§30) 12) Medium Control (MC) sample plates (labeled as TO-MC and T90-MC) are prepared in the same way as cell incubation except that medium was used instead of cell suspension.
(§31) 13) At each corresponding time point, stop the reactions by removing the plates from incubator and mixing with 125 μL of ice-cold stop solution.
(§32) 14) Vortex the plates immediately on a plate shaker at 600 rpm for 10 minutes. Then, centrifuge all sample plates at 3220×g for 20 min at 4° C.
(§33) 15) After centrifugation, 80 μL/well of supernatant in the sample plates are transferred to another set of pre-labeled 96-well plates which containing 240 μL of ultra pure water according to the plate map.
(§34) 16) Analytical plates are sealed and store at 4° C. until LC-MS/MS analysis.
(§35) The remaining percents of test articles after incubation were calculated by the follow equations:
(§36) Use the following equation of first order kinetics to calculate T1/2 and CLint:

[3] = Hepatic metabolic stability (HMS) assay, mouse hepatocytes; details: mouse, cryopreserved hepatocytes
Procedure: 1) 10 mM test compounds were provided.
as §20, §21, §22, §23, §24, §25, §26, §27, §28, §29, §30, §31, §32, §33, §34, §35, §36

Caco-2 cell monolayer = Caco-2 cell monolayer model assay (permeability); assay type: in vitro ADME; details: Caco-2, 1 μM
Procedure: as §1, §2, §3, §4, §5, §6, §7, §8, §9, §10, §11, §12

CYP1A2 = CYP1A2 (Homo sapiens (Human), UniProt P05177); details: microsomes
Procedure: (§13) CYP isoforms inhibitory activities of test compounds were measured in human liver microsome.
(§14) Preparation details of these substrates are given in below table. The substrate stock solution was stored in a −20° C. freezer. Prior to use, the substrate stock solution was removed from the freezer and allowed to rise to room temperature. Then the substrate stock solution was mixed on a whirly mixer for 30 seconds.
(§15) HLMs were stored in a −80° C. freezer. Prior to use, the pooled HLM was removed from the freezer and allowed to thaw in a 37° C. water bath and then stored on wet ice.
(§16) The positive control inhibitors and their concentrations used by each isozyme are summarized below.
(§17) All samples were incubated in a 37° C. water bath, with three parallels for each concentration of the test compound and two parallels for each concentration of the positive control inhibitor. 100 μL of microsome working solution was taken and added 2 μL of the test product or positive inhibitor working solution. 2 μL solvents was added to the solvent control, and put in a water bath to pre-incubate for 10 min. After pre-incubation, 98 μL of NADPH regeneration solution was added to all samples to start the reaction. Then the mixture was put back in the water bath and incubated for a certain period of time.
(§18) The reaction was quenched by 200 μL stop solution. […]
(§19) IC50 values were determined using 3- or 4-parameter logistic equation.

CYP2C9 = CYP2C9 (Homo sapiens (Human), UniProt P11712); test: CYP isoforms inhibitory assay in human liver microsome, CYP2C9; assay type: in vitro ADME; details: substrate diclofenac
Procedure: as §13, §14, §15, §16, §17, §18, §19

CYP2D6 = CYP2D6 (Homo sapiens (Human), UniProt P10635); test: CYP isoforms inhibitory assay in human liver microsome, CYP2D6; details: read-out: IC50 CYP2D6, substrate dextromethorphan
Procedure: as §13, §14, §15, §16, §17, §18, §19

[4] = test system: cryopreserved hepatocytes
Procedure: 1) 10 mM test compounds were provided.
as §20, §21, §22, §23, §24, §25, §26, §27, §28, §29, §30, §31, §32, §33, §34, §35, §36

[5] = test system: cryopreserved hepatocytes; remark: listed apart in the source
Procedure: 1) 10 mM test compounds were provided.
as §20, §21, §22, §23, §24, §25, §26, §27, §28, §29, §30, §31, §32, §33, §34, §35, §36

Sequence of CYP2C9 (P11712 whole entry, canonical isoform): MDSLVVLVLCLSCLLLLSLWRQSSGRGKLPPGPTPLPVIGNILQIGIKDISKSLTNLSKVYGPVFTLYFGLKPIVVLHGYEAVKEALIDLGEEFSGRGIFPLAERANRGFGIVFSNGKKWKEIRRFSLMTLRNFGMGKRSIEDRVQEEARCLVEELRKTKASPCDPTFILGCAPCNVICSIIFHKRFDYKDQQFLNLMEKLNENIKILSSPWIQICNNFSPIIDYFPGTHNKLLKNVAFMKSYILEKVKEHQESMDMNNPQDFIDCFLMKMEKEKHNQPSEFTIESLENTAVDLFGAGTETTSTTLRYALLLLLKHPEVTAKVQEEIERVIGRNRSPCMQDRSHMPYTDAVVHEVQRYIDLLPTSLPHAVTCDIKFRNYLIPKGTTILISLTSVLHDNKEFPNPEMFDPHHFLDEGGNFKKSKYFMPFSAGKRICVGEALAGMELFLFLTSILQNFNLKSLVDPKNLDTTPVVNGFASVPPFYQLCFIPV
Sequence of CYP1A2 (P05177 whole entry, canonical isoform): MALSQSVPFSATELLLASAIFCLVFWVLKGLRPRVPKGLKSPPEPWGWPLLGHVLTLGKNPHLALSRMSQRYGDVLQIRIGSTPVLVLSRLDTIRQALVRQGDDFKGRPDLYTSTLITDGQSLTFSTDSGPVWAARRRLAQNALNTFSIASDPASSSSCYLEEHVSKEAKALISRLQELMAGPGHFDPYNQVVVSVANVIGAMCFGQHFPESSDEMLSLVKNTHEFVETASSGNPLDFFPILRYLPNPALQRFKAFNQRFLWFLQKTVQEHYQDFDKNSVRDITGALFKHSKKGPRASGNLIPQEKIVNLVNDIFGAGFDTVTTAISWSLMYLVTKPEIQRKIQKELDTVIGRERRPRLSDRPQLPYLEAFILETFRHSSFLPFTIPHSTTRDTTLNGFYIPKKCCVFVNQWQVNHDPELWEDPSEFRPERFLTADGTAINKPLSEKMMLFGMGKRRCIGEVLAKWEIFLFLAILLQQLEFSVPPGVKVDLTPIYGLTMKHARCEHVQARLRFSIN
Sequence of CYP2D6 (P10635 whole entry, canonical isoform): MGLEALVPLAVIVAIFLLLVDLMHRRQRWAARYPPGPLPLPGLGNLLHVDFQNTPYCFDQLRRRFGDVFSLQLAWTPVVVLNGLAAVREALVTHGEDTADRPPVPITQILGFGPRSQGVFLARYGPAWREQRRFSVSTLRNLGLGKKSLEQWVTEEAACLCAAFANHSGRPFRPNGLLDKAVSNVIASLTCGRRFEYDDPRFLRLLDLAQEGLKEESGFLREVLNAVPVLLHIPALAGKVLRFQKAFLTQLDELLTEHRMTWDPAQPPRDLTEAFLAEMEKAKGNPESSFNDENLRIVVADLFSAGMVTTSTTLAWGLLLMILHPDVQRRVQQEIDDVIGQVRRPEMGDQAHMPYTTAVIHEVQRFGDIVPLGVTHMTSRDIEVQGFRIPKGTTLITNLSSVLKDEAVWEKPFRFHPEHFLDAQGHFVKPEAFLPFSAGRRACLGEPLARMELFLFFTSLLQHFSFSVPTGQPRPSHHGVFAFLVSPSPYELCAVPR

Row | Compound | efflux ratio at 2 h, 1 μM ([1]; Caco-2, pH 7.4) | Papp A→B at 2 h, 1 μM ([1]; Caco-2, 1 μM, 2 hours, pH 7.4) | Papp B→A at 2 h, 1 μM ([1]; Caco-2, 1 μM, 2 hours, pH 7.4) | half-life at 1 μM (in vitro) | half-life at 1 μM [2] | half-life at 1 μM [3] | Recovery AP − BL (Caco-2 cell monolayer) | Recovery BL − AP (Caco-2 cell monolayer) | Papp (A−B) (Caco-2 cell monolayer; 2 hours, pH 7.4) | Papp (B−A) (Caco-2 cell monolayer; 2 hours, pH 7.4) | Efflux Ratio (Caco-2 cell monolayer; Papp (B-A)/Papp (A-B)) | IC50 (CYP1A2) | IC50 (CYP2C9) | IC50 (CYP2D6) | CLint (liver) M [4] | CLint (hep) M ([4]; mouse) | T1/2 (hepatocytes) M ([4]; mouse) | CLint (liver) D [5] | CLint (hep) D ([5]; dog) | T1/2 (hepatocytes) D ([5]; dog)
1 | CN(C(=O)c1ccc2nc(N)c3cncn3c2c1)[C@@H]1COc2cc(C(F)(F)F)ccc21 [Compound 12] | 1.98 | 60.7 nm/s | 120 nm/s | > 2.42 h | 2.12 h | 1.86 h |  |  |  |  |  |  |  |  |  |  |  |  |  | 
2 | CN(C(=O)c1ccc2nc(N)c3cncn3c2c1)C1COc2cc(C(F)(F)F)ccc21 (centres unmarked) [Compound 17] |  |  |  |  |  |  | 81.0% | 85.6% | 6.70 10^−6 cm/s | 11.8 10^−6 cm/s | 1.76 | > 30 µM | > 30 µM | > 30 µM | 11 L/h/kg | 15.4 μL/min/10^6 | 1.5 h | 2.81 L/h/kg | 6.8 μL/min/10^6 | 3.39 h

Reference: US20240262835A1, “PRMT5 INHIBITING COMPOUNDS AND USES THEREOF” (ANTENGENE DISCOVERY LIMITED, priority 2023, published 2024)
